The source of these data is patent publication US6773897B2, “Method of predicting the clinical response to chemotherapeutic treatment with alkylating agents” (The Johns Hopkins University School of Medicine, priority 2000, dated 2004).

The subject of experiment [1] is diffuse large B-cell lymphoma (B-DLCL). Here is the method: DNA was extracted according to standard protocols known to those of skill in the art (see, e.g., Sambrook et al., Molecular Cloning: a Laboratory Manual, 2nd Ed.; Cold Spring Harbor Laboratory Press, Plainview, N.Y., 1998, herein incorporated by reference). Methylation patterns in the CpG island of MGMT were determined by chemical modification of unmethylated, but not methylated, cytosines to uracil. Methylation-specific polymerase chain reaction (PCR) was performed with primers specific for either methylated or the modified unmethylated DNA, as previously described (Esteller, et al. Cancer Res 1999; 59:793-797; incorporated herein by reference in its entirety; and Herman et al. Proc Natl Acad Sci USA 1996;93:9821-9826; incorporated herein by reference in its entirety). DNA (1 μg) was denatured with sodium hydroxide and modified with sodium bisulfite. DNA samples were then purified with the Wizard DNA purification resin (Promega, Madison, Wis.), again treated with sodium hydroxide, precipitated with ethanol, and resuspended in water. Primer sequences for the unmethylated reaction were 5′[…]3′ (forward primer; SEQ ID NO:1) and 5′[…]3′ (reverse primer; SEQ ID NO:2), and for the methylated reaction they were 5′[…]3′ (forward primer; SEQ ID NO:3) and 5′[…]3′ (reverse primer; SEQ ID NO:4). The annealing temperature was 59° C. Placental DNA treated in vitro with Sss I methyltransferase (New England Biolabs, Beverly, Mass.) was used as a positive control for methylated alleles of MGMT, and DNA from normal lymphocytes was used as a negative control. Controls without DNA were used for each set of methylation-specific PCR assays. Ten microliters of each 50-μl methylation-specific PCR product was loaded directly onto nondenaturing 6 percent polyacrylamide gels, stained with ethidium bromide, and examined under ultraviolet illumination.
Continuous variables were compared with the use of Student's t-test. Contingency tables were analyzed by Fisher's exact test. Disease-free and overall survival curves were estimated by the Kaplan-Meier method and were compared with the use of the log-rank test. Multivariate survival analyses were performed with the Cox proportional-hazards model, and proportional-hazards assumptions were checked with the use of Schoenfeld residuals and graphic methods. Descriptive or stratified analyses always preceded parametric modeling in order to confirm that the assumptions underlying the models were met. The results are reported as two-sided P values with 95 percent confidence intervals. Analyses were performed with the use of JMP software (version 3.1, SAS Institute, Cary, N.C.) and Stata software (version 6.0, Stata, College Station, Tex.).
Clinical follow-up was obtained until Aug. 31, 1999 or until death. […] Diagnosis was based on histopathology, immunophenotypic analysis of cell surface markers, and immunogenotypic analysis of immunoglobulin gene rearrangement. The histopathologic definition of B-DLCL was according to the REAL classification (Harris N L, et al., Blood. 1994;84:1361-92). Subjects positive for human immunodeficiency virus were not included in the study. Staging included routine blood chemistry tests; blood cell counts and differential; EKG; chest x-ray; computed tomography of chest, abdomen and pelvis; and bilateral bone marrow biopsy in all subjects. Disease stage was assessed according to Ann Arbor criteria (Carbone P P, et al., Cancer Res. 1971;31:1860-1). The International Prognostic […] (IPI) was calculated as described (The International Non-Hodgkin's Lymphoma Prognostic Factors Project. A predictive model for aggressive non-Hodgkin's lymphoma. N Engl J Med. 1993;329:987-94), with subjects classified as Low, Low-Intermediate, High-Intermediate, and High risk.
Treatment varied, depending on stage of disease, date of diagnosis, institution and prognostic factors.

Experiment [2] deals with T1, MGMT (Homo sapiens, UniProt P16455).
T1 sequence (P16455 1-207): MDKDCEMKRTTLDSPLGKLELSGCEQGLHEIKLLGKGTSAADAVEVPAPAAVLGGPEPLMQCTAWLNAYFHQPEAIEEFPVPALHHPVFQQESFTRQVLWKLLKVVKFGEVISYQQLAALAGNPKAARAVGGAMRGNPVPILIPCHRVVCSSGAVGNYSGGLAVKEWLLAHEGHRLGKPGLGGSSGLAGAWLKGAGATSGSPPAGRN
The settings on record: substrate for MGMT; cited from earlier work.

Experiment [3] concerns the target T1, MGMT. The settings on record: cited from earlier work.
Experiment [4] deals with grade III or IV gliomas (anaplastic astrocytoma, glioblastoma multiforme). The experiment in a line: Clinical response, survival and time to progression of gliomas treated with carmustine, by MGMT promoter methylation status. The format is in vivo, human. The procedure:
The annealing temperature was 59° C.
Contingency tables were analyzed by Fisher's exact test.
Specimens of brain tumors from 47 consecutive subjects referred to the University Hospital of Navarre, in Pamplona, Spain, between April 1993 and November 1998 were studied. All the subjects provided written informed consent. […] Subjects were 38 to 70 years old (median age at diagnosis, 55 years); 30 were men, and 17 were women. Tumor specimens were obtained by resection or biopsy performed before the initiation of treatment with radiation and chemotherapy and were immediately frozen and stored at −80° C. All subjects were treated with intraarterial cisplatin (50 mg per square meter of body-surface area), whole-brain radiotherapy, and a median of three courses of intravenous carmustine (1,3-bis(2-chloroethyl)-1-nitrosourea, or BCNU; 100 mg per square meter) given at four-week intervals. Fifteen of the subjects also underwent autologous bone marrow transplantation plus high-dose chemotherapy treatment with three doses of intravenous carmustine (300 mg per square meter) per day and one dose of intraarterial cisplatin (100 mg)
The response to treatment was evaluated after the subjects had completed therapy. A complete response was defined as the absence of any evidence of the tumor on computed tomographic (CT) and magnetic resonance imaging (MRI) scans, with no need for steroid treatment and an improvement in the subject's general condition. Subjects with persistent CT abnormalities but with more than a 50 percent reduction in both the diameter and the volume of the tumor, a reduced need for steroid treatment, and a stabilized neurologic condition were considered to have a partial response. The disease was considered to have progressed if both the diameter and volume of the tumor increased by 25 percent or more of the initial measurements, if a new lesion was evident on CT or MRI scans, or if the subject's neurologic condition worsened and required an increased dose of steroids.
Forty-seven newly diagnosed grade III or IV gliomas (classified as anaplastic astrocytoma in 18 subjects and as glioblastoma multiforme in 29) were analyzed. Methylation of the MGMT promoter was found in 19 of the 47 tumors (40 percent) a frequency similar to that found in a previous study (Estellar, 1999, supra) and consistent with that in other reports (Silber et al., Cancer Res 1993; 53:3416-3420; and Silber et al., Cancer Res 1998; 58:1068-1073). Methylation was not associated with the subject's age, the Karnofsky score for performance status, or the grade of the tumor (P>0.3 for each comparison).

Where [5] appears, read: subjects with MGMT methylation (N=30).
[6] abbreviates: subjects without methylation (N=54).

Where two headings read alike, the source gives them in different places.

As to `O=P1(N(CCCl)CCCl)NCCCO1` (stereo not shown) [cyclophosphamide], in experiment [1] (setting [5]), the “CR (complete remission)” value amounted to 77%, the NR amounted to 10% and the “PR (partial remission)” value stood at 13%. In experiment [1] (setting [6]), the NR was found to be 22%, the “PCR (complete remission)” value stood at 63% and the “PR (partial remission)” value is 15%. Also, the “time to death, hazard ratio for non-methylation” value in experiment [1] (univariate, 95% CI 1.2 to 7.5, p=0.01) was determined as 2.8. The “disease progression, hazard ratio without vs with methylation” value in experiment [1] (univariate, 95% CI 1.3 to 5.8, p=0.005) was found to be 2.6.

Turning to `Nc1nc(OCc2ccccc2)c2nc[nH]c2n1` [O^6-benzylguanine], the “effect on MGMT enzyme” value in experiment [2] is recorded as “inactivates the enzyme”. In experiment [3], the “effect on sensitivity to cyclophosphamide metabolites” value is “increase sensitivity to cyclophosphamide metabolites”. For the same compound, the “effect on response to alkyl nitrosoureas” value in experiment [3] (in vitro and in vivo) was “enhance the response to alkyl nitrosoureas in vitro and in vivo”.

As for `O=NN(CCCl)C(=O)NCCCl` [carmustine, 1,3-bis(2-chloroethyl)-1-nitrosourea], in experiment [4] (lack of methylation vs methylation, univariate, 95% CI 3.0 to 42.7), the “risk of death, hazard ratio” value turned out to be 9.5. In experiment [4] (methylated (N=19)), the “Complete response, % (95% CI)” value is reported as 11 (1-33) %; the “No Change, % (95% CI)” value was 16 (3-38) %; the “Partial response, % (95% CI)” value is recorded as 52 (29-76) %; the “Progression, % (95% CI)” value is given as 21 (6-44) %. Further, the “median time to the progression of disease” value in experiment [4] (methylated gliomas) was determined as 21 months. For the same compound, the “time to progression, hazard ratio associated with nonmethylation” value in experiment [4] (nonmethylation vs methylation, 95% CI 4.4 to 30.8) was 10.8. Further, the “partial or complete response to carmustine” value in experiment [4] (subjects with methylated MGMT promoter tumors (N=19)) was determined as 63%. For the same compound, the “partial or complete response to carmustine” value in experiment [4] (subjects with unmethylated MGMT promoter tumors (N=28)) came out at 4%. Moreover, in experiment [4] (unmethylated (N=28)), the “Complete response, % (95% CI)” value is 0 (0-12) %; the “No Change, % (95% CI)” value was 14 (4-33) %; the “Partial response, % (95% CI)” value is reported as 4 (0-18) %; the “Progression, % (95% CI)” value was 82 (63-94) %. In addition, the “median time to the progression of disease” value in experiment [4] (unmethylated gliomas) was 8 months.
